# Assay results: patent US8734853B2, “HDL particles for delivery of nucleic acids” (University of North Texas Health Science Center at Fort …, priority 2008, dated 2014)
# Key:
# HeyA8 = assay: Orthotopic mouse model of ovarian carcinoma (HeyA8); assay type: in vivo, female athymic nude mice
# Description: Orthotopic mouse model. The 10- to 12-week-old female athymic nude mice were obtained from the US National Cancer Institute. All experiments were approved by the Institutional Animal Care and Use Committee of the M.D. Anderson Cancer Center. […] Tumor cells for appropriate ovarian cancer mouse models (HeyA8, 2.5×105; SKOV3ip1 and […], 1.0×106) were injected intraperitoneally into mice on day 0. Mice randomized into appropriate groups on day 7 when tumors had been established and were palpable. After 3-5 weeks of treatment (depending on the model), mice were necropsied and tumors were harvested. Small interfering RNA (siRNA). Specific siRNAs targeted against Stat3-7 (target sequence [NT] ID NO:1), FAK (target Sequence [NT] ID NO:2) and control siRNA targeted against (target sequence:[NT] ID NO:3) were purchased from Sigma-Aldrich Corporation, (Woodland, Tex.). These were incorporated into r-HDL nanoparticles, as previously described (Mooberry et al., 2009). 5 ug of r-HDL incorporated siRNA was injected intraperitoneally twice weekly. For in vitro studies, mRNA-specific or nonspecific (control) siRNA was incorporated into Qiagen RNAiFect transfection agent (1 ug of siRNA to 3 uL of RNAiFect). […] Cells were first transfected with STAT3 siRNA. Twenty-four hours after transfection, media was changed to standard siRNA-free media and cells were treated with docetaxel (see below for details). Reagents. Docetaxel was purchased from Sanofi-Aventis (Bridgewater, N.J.). […] These cells were treated with docetaxel after STAT3 gene was silenced using siRNA (as described above) for 48 hours. In In vivo experiments, appropriate groups received treatment with docetaxel starting on day 7, once a week, intraperitoneally at: 50 ug/mouse (HeyA8 and HeyA8-MDR) and 30 ug/mouse (SKOV3). […] Statistics. Continuous variables were compared with the use of the Student t test (between 2 groups) or analysis of variance (for all groups) if normally distributed, and with the use of the Mann-Whitney rank sum test or Kruskal Wallis test (for all groups) if nonparametric. […]
# SKOV3ip1 [1] = assay: Orthotopic ovarian cancer mouse model (SKOV3ip1); assay type: in vivo, female athymic nude mice; details: compared to control group
# Description: (§1) Orthotopic mouse model. The 10- to 12-week-old female athymic nude mice were obtained from the US National Cancer Institute. All experiments were approved by the Institutional Animal Care and Use Committee of the M.D. Anderson Cancer Center. […] Tumor cells for appropriate ovarian cancer mouse models (HeyA8, 2.5×105; SKOV3ip1 and […], 1.0×106) were injected intraperitoneally into mice on day 0. Mice randomized into appropriate groups on day 7 when tumors had been established and were palpable. After 3-5 weeks of treatment (depending on the model), mice were necropsied and tumors were harvested. Small interfering RNA (siRNA). Specific siRNAs targeted against Stat3-7 (target sequence [NT] ID NO:1), FAK (target Sequence [NT] ID NO:2) and control siRNA targeted against (target sequence:[NT] ID NO:3) were purchased from Sigma-Aldrich Corporation, (Woodland, Tex.). These were incorporated into r-HDL nanoparticles, as previously described (Mooberry et al., 2009). 5 ug of r-HDL incorporated siRNA was injected intraperitoneally twice weekly. For in vitro studies, mRNA-specific or nonspecific (control) siRNA was incorporated into Qiagen RNAiFect transfection agent (1 ug of siRNA to 3 uL of RNAiFect). […] Cells were first transfected with STAT3 siRNA. Twenty-four hours after transfection, media was changed to standard siRNA-free media and cells were treated with docetaxel (see below for details). […]
# HeyA8MDR = assay: Multi-drug resistant model of ovarian carcinoma (HeyA8MDR); assay type: in vivo, female athymic nude mice; details: compared to control siRNA/rHDL
# Description: as §1
# SKOV3ip1 [2] = assay: Ki-67 staining (cell proliferation index) of tumors from SKOV3ip1 model; assay type: in vivo, female athymic nude mice; details: compared with control group
# Description: Effect of STAT3 targeting on tumor microenvironment. […] The combination of STAT3 siRNA/rHDL and docetaxel reduced tumor cell proliferation by 48% (P<0.01) compared with control group (FIG. 7).
# SKOV3ip1 [3] = assay: TUNEL staining of tumor tissues from the SKOV3ip1 model; assay type: in vivo, female athymic nude mice; details: SKOV3ip1 model tumors, compared to control group
# Description: TUNEL Staining. Assessment of apoptosis, frozen sections stained by terminal deoxynucleotidyl transferase-mediated deoxyuridine triphosphate nick-end labeling (TUNEL; green; Promega, Madison, Wis.), was performed as described previously (Shahzad et al., 2009). The samples were counterstained with Hoechst 1:10,000 (Thaker et al., 2005). An apoptotic body was represented by green fluorescence. To quantify apoptotic cells, the number of TUNEL positive cells was calculated in 10 random fields at the original magnification 200× from five separate slides (per group) and averaged.
# STAT3 is known to increase cell survival and inhibit apoptosis (Shen et al., 2001; Catlett-Falcone et al., 1999; Zushi et al., 1998; Masude et al., 2002). To assess whether STAT3 knockdown would enhance the efficacy of docetaxel treatment by enhancing its ability to produce apoptosis., fluorescents labeled TUNEL staining was performed on fresh frozen tumor tissues from the SKOV3ip1 ovarian cancer treatment model.
# [4] = system: SKOV3ip1 ovarian cancer cells; assay: Annexin-V PE/7AAD flow cytometry apoptosis assay; assay type: cell-based; details: docetaxel 4 nM, 48 hours after docetaxel treatment
# Description: All in vitro experiments were conducted using 4.0 nM concentration of docetaxel in SKOV3ip1 ovarian cancer cells. These cells were treated with docetaxel after STAT3 gene was silenced using siRNA (as described above) for 48 hours.
# Additionally, to determine the effects of in vitro STAT3 targeting on apoptosis, STAT3 gene was silenced in SKOV3ip1 ovarian cancer cells using an siRNA targeted against STAT3 and followed by treatment with docetaxel (4 nM). 48 hours after docetaxel treatment, the extent of cell death secondary to apoptosis was analyzed after Annexin-V PE/7AAD staining with flow cytometry.
# [5] = system: tumor associated angiogenesis; assay: CD31 staining, microvessel density (MVD) of tumor samples; details: compared with control siRNA/rHDL treatment
# Description: Paraffin sections for CD31 (1:800 dilution, Pharmingen), were stained at 4° C. […] To quantify MVD, five random 0.159 mm2 fields at 100× magnification for each tumor were examined, and microvessels within those fields were counted (Thaker et al., 2005).
# In order to ascertain the effects of STAT3 silencing on tumor associated angiogenesis, CD 31 staining on fresh frozen tumor samples from all four treatment groups (FIG. 7) was determined along with microvessel density (MVD).
# HCT116 = HCT116 model, compared to controls
# [6] = system: SKOV3ip1 ovarian cancer cells; assay: MTT assay, docetaxel after STAT3 siRNA transfection; assay type: cell-based; details: SKOV3ip1 cells transfected with STAT3 siRNA, docetaxel in escalating doses, compared to docetaxel treatment
# Description: Small interfering RNA (siRNA). Specific siRNAs targeted against Stat3—7 (target sequence 5′-[…]-3′; SEQ ID NO:1), FAK (target Sequence 5′-[…]-3′; SEQ ID NO:2) and control siRNA targeted against (target sequence:5′-[…]-3′; SEQ ID NO:3) were purchased from Sigma-Aldrich Corporation, (Woodland, Tex.). These were incorporated into r-HDL nanoparticles, as previously described (Mooberry et al., 2009). 5 ug of r-HDL incorporated siRNA was injected intraperitoneally twice weekly. For in vitro studies, mRNA-specific or nonspecific (control) siRNA was incorporated into Qiagen RNAiFect transfection agent (1 ug of siRNA to 3 uL of RNAiFect). Only 70% to 80% confluent SKOV3ip1 cells were utilized. Cells were first transfected with STAT3 siRNA. Twenty-four hours after transfection, media was changed to standard siRNA-free media and cells were treated with docetaxel (see below for details).
# MTT assay. SKOV3 cell (1.5×105) cells were plated in each well, using 6 well plates. Cells were then transfected with control or STAT3 siRNA overnight. […] Forty-eight hours after docetaxel treatment, the number of viable cells was determined by adding 50 μL of 0.15% 3-(4,5-dimethylthiazol-2-yl)-2,5-diphenyl tetrazolium bromide (MTT; Sigma) to each well. […] Viable cells were quantified by measuring the absorbance at 570 nm using a uQuant plate reader (Bio-Tek, Winooski, Vt.). […]
# Ovarian Tumor Cells = assay: Gene expression profile after STAT3 knockdown (Illumina microarray / quantitative RT-PCR); assay type: cell-based
# Description: Effect of STAT3 Silencing on Gene Expression profile of Ovarian Tumor Cells. STAT3 knockdown using siRNA targeted against STAT3, microarray analysis using Illumina platform was performed There were 460 genes that were identified to have differential expression levels between the control and STAT3 targeted group. Data was then analyzed using ingenuity-pathway assistance and 32 genes that were involved in cell survival and apoptosis were chosen (Table 1).
# [7] = STAT3 targeting study, compared to the control group
compound,measurement,setting,value
CC(=O)O[C@@]12CO[C@@H]1C[C@H](O)[C@@]1(C)C(=O)[C@H](O)C3=C(C)[C@@H](OC(=O)[C@H](O)[C@@H](NC(=O)OC(C)(C)C)c4ccccc4)C[C@@](O)([C@@H](OC(=O)c4ccccc4)[C@H]21)C3(C)C [docetaxel],reduction in tumor growth,HeyA8; FAK targeting study,74%
same,reduction in tumor growth,HeyA8; [7],62%
same,reduction in tumor metastasis,HeyA8; [7],77%
same,reduction in tumor growth,SKOV3ip1 [1],78%
same,reduction in tumor growth,HeyA8MDR,17%
same,reduction in tumor cell proliferation (Ki-67),SKOV3ip1 [2],30%
same,increase in tumor cell apoptosis (TUNEL),SKOV3ip1 [3],12 fold
same,increase in apoptosis compared to control,[4],5.2 fold
same,"reduction in MVD (tumor associated vessel counts, CD31)",[5],66%
O=C1[O][Pt]2([NH][C@@H]3CCCC[C@H]3[NH]2)[O]C1=O [oxaliplatin],reduction in tumor growth,HCT116,55%
"STAT3 siRNA: siRNA against Stat3 (SEQ ID NO:1), transfected in vitro with Qiagen RNAiFect transfection agent (GCCUCUCUGCAGAAUUCAA; listed as RNA, chemistry not given here)",effect of STAT3 silencing on IC 50 values of docetaxel,[6],lowered the IC 50 values of docetaxel significantly
same,increase in apoptosis compared to control,[4],3 fold
same,Fold Change,"Ovarian Tumor Cells; gene ALOX5, Stat3 silencing vs control",1.43 fold
same,Fold Change,"Ovarian Tumor Cells; gene ATF6, Stat3 silencing vs control",0.44 fold
same,Fold Change,"Ovarian Tumor Cells; gene BAX, Stat3 silencing vs control",1.49 fold
same,Fold Change,"Ovarian Tumor Cells; gene BCL6, Stat3 silencing vs control",0.72 fold
same,Fold Change,"Ovarian Tumor Cells; gene BEX2, Stat3 silencing vs control",1.46 fold
same,Fold Change,"Ovarian Tumor Cells; gene CAV1, Stat3 silencing vs control",0.75 fold
same,Fold Change,"Ovarian Tumor Cells; gene CD24, Stat3 silencing vs control",0.73 fold
same,Fold Change,"Ovarian Tumor Cells; gene CDCP1, Stat3 silencing vs control",0.73 fold
same,Fold Change,"Ovarian Tumor Cells; gene CTGF, Stat3 silencing vs control",0.62 fold
same,Fold Change,"Ovarian Tumor Cells; gene CYR61, Stat3 silencing vs control",0.68 fold
same,Fold Change,"Ovarian Tumor Cells; gene DKK1, Stat3 silencing vs control",0.72 fold
same,Fold Change,"Ovarian Tumor Cells; gene DUSP1, Stat3 silencing vs control",0.74 fold
same,Fold Change,"Ovarian Tumor Cells; gene ETS2, Stat3 silencing vs control",0.56 fold
same,Fold Change,"Ovarian Tumor Cells; gene FGF2, Stat3 silencing vs control",0.68 fold
same,Fold Change,"Ovarian Tumor Cells; gene FOS, Stat3 silencing vs control",0.72 fold
same,Fold Change,"Ovarian Tumor Cells; gene HM OX1, Stat3 silencing vs control",1.79 fold
same,Fold Change,"Ovarian Tumor Cells; gene IGFBP3, Stat3 silencing vs control",0.45 fold
same,Fold Change,"Ovarian Tumor Cells; gene IL-1B, Stat3 silencing vs control",0.55 fold
same,Fold Change,"Ovarian Tumor Cells; gene IL-6, Stat3 silencing vs control",0.61 fold
same,Fold Change,"Ovarian Tumor Cells; gene KITLG, Stat3 silencing vs control",0.66 fold
same,Fold Change,"Ovarian Tumor Cells; gene NFKBIZ, Stat3 silencing vs control",0.65 fold
same,Fold Change,"Ovarian Tumor Cells; gene NQO1, Stat3 silencing vs control",0.55 fold
same,Fold Change,"Ovarian Tumor Cells; gene NRP1, Stat3 silencing vs control",0.67 fold
same,Fold Change,"Ovarian Tumor Cells; gene PLAUR, Stat3 silencing vs control",0.72 fold
same,Fold Change,"Ovarian Tumor Cells; gene PMAIP1, Stat3 silencing vs control",0.69 fold
same,Fold Change,"Ovarian Tumor Cells; gene PMEPA1, Stat3 silencing vs control",0.71 fold
same,Fold Change,"Ovarian Tumor Cells; gene PRKRA, Stat3 silencing vs control",0.68 fold
same,Fold Change,"Ovarian Tumor Cells; gene RASA1, Stat3 silencing vs control",0.68 fold
same,Fold Change,"Ovarian Tumor Cells; gene RTN1, Stat3 silencing vs control",1.37 fold
same,Fold Change,"Ovarian Tumor Cells; gene SFRP1, Stat3 silencing vs control",0.55 fold
same,Fold Change,"Ovarian Tumor Cells; gene SGK1, Stat3 silencing vs control",0.68 fold
same,Fold Change,"Ovarian Tumor Cells; gene SPARC, Stat3 silencing vs control",0.7 fold
same,Fold Change,"Ovarian Tumor Cells; gene SPP1, Stat3 silencing vs control",0.77 fold
same,Fold Change,"Ovarian Tumor Cells; gene STAT3, Stat3 silencing vs control",0.23 fold
same,Fold Change,"Ovarian Tumor Cells; gene TCF3, Stat3 silencing vs control",0.71 fold
same,Fold Change,"Ovarian Tumor Cells; gene TNFRSF11B, Stat3 silencing vs control",0.61 fold
same,Fold Change,"Ovarian Tumor Cells; gene TNFSF10, Stat3 silencing vs control",0.7 fold
same,Fold Change,"Ovarian Tumor Cells; gene XBP1, Stat3 silencing vs control",0.74 fold
